Laboratory results reported in BindingDB's records for patent WO2025051920 (Sanofi-Aventis Deutschland, 2025).
Bridge positions count the residues as written; N and C are the ends. Square brackets hold non-standard residues; d marks the D form. Peptide text beside a SMILES is read from it. ξ: configuration not given here. Trp(1-Me) = Cn1cc(C[C@H](N)C(=O)O)c2ccccc21; 2Nal = N[C@@H](Cc1ccc2ccccc2c1)C(=O)O; ξThr(3R) = C[C@@H](O)C(N)C(=O)O; dOrn = NCCC[C@@H](N)C(=O)O; ξH = NC(Cc1c[nH]cn1)C(=O)O; Thp = NC1(C(=O)O)CCOCC1; ξD = NC(CC(=O)O)C(=O)O; ξOrn = NCCCC(N)C(=O)O; Aib = CC(C)(N)C(=O)O; ξK = NCCCCC(N)C(=O)O

Target: Interleukin-23 subunit alpha/receptor (UniProt Q5VWK5)
Experiment: ELISA assay for specific human IL-23R inhibitors
Experimental: A 384-well plate was coated with 50 µl/well of human IL-23 at a final concentration of […] and incubated overnight at 4°C. The wells were washed 3 times with […] wash buffer and blocked with […] blocking buffer for 60 minutes at room temperature and washed again. 20 µl of serially diluted test peptides was added to each well and subsequently 20 µl of recombinant human IL-23R-Fc chimera at final concentration of […]. The plate was incubated for 60 minutes at room temperature. After the wells were washed, bound IL-23R-Fc was detected with goat anti-hu- IgG 1 -HRP antibody. Signals were visualized with QuantaBlu Fluorogenic Peroxidase Substrate.

Chain of Interleukin-23 subunit alpha/receptor (Q9NPF7 whole entry): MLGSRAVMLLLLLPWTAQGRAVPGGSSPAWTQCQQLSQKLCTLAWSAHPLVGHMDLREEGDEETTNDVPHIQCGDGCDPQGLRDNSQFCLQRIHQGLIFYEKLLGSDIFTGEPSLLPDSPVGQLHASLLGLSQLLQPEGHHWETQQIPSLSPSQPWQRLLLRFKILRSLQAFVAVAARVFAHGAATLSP
Chain of Interleukin-23 subunit alpha/receptor (Q5VWK5 whole entry): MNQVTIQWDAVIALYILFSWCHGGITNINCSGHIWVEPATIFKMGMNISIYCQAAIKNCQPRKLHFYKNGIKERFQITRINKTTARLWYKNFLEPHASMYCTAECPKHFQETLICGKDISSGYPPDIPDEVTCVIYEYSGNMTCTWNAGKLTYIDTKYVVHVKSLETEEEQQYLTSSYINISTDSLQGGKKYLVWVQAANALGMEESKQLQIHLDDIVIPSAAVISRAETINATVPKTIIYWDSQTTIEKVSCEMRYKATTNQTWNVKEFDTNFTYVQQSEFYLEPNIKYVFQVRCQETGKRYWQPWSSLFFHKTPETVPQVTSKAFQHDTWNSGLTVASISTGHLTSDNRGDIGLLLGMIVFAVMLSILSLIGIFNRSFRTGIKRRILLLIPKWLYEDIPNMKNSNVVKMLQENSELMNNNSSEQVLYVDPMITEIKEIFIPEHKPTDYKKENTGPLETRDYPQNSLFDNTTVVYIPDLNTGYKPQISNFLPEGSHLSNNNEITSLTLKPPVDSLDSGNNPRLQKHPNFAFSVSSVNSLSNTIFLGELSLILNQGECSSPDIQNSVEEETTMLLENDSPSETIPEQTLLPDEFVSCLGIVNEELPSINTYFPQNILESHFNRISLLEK

Row | SMILES | IC50 [nM]
1 | COc1ccc(C[C@@H]2NC(=O)C(C)(C)NC(=O)[C@H](CCC(N)=O)NC(=O)[C@H](Cc3c[nH]c4ccccc34)NC(=O)[C@H]([C@@H](C)O)NC(=O)[C@H](CC(N)=O)NC(=O)[C@H](NC(C)=O)CCCCNC(=O)C[C@@H](C(=O)N[C@@H](CC(N)=O)C(=O)N[C@@H](CC(N)=O)C(=O)O)NC(=O)C(C)(C)NC(=O)[C@H](Cc3cccc4ccccc34)NC2=O)cc1 [WO2025051920, Example 21] | 16.9
2 | COc1ccc(C[C@@H]2NC(=O)[C@H](C(C)C)NC(=O)[C@H](CCC(N)=O)NC(=O)[C@H](Cc3c[nH]c4ccccc34)NC(=O)[C@H]([C@@H](C)O)NC(=O)[C@H](CC(N)=O)NC(=O)[C@H](NC(C)=O)CCCCNC(=O)C[C@@H](C(=O)N[C@@H](CC(N)=O)C(=O)N[C@@H](CC(N)=O)C(=O)O)NC(=O)C(C)(C)NC(=O)[C@H](Cc3ccc4ccccc4c3)NC2=O)cc1 [WO2025051920, Example 31] | 8.27
3 | COc1ccc(C[C@@H]2NC(=O)C(C)(C)NC(=O)[C@H](CCC(N)=O)NC(=O)[C@H](Cc3c[nH]c4ccccc34)NC(=O)[C@H]([C@@H](C)O)NC(=O)[C@H](CC(N)=O)NC(=O)[C@H](NC(C)=O)CCCCNC(=O)C[C@@H](C(=O)N[C@@H](CC(N)=O)C(=O)N[C@@H](CC(N)=O)C(=O)O)NC(=O)C(C)(C)NC(=O)[C@H](Cc3ccc4ccccc4c3)NC2=O)cc1 [WO2025051920, Example 32] | 2.68
4 | CC(=O)N[C@H]1CC(=O)NCCCC(C(=O)N[C@@H](CC(N)=O)C(=O)N[C@@H](CC(N)=O)C(=O)O)NC(=O)C(C)(C)NC(=O)[C@H](Cc2ccc3ccccc3c2)NC(=O)[C@H](Cc2ccc(O)cc2)NC(=O)[C@H](CCCNC(=N)N)NC(=O)[C@H](CCC(N)=O)NC(=O)[C@H](Cc2cn(C)c3ccccc23)NC(=O)[C@H]([C@@H](C)O)NC(=O)[C@H](CC(N)=O)NC1=O (some centres undefined) [WO2025051920, Example 33] (Ac-DNT[Trp(1-Me)]QRY[2Nal][Aib][ξOrn]NN-OH; lactam 1-10) | 3.36
5 | COc1ccc(C[C@@H]2NC(=O)[C@H](CCCNC(=N)N)NC(=O)[C@H](CCC(N)=O)NC(=O)[C@H](Cc3cn(C)c4ccccc34)NC(=O)[C@H]([C@@H](C)O)NC(=O)[C@H](CC(N)=O)NC(=O)[C@@H](NC(C)=O)CC(=O)NCCCC(C(=O)N[C@@H](CC(N)=O)C(=O)N[C@@H](CC(N)=O)C(=O)O)NC(=O)C(C)(C)NC(=O)[C@H](Cc3ccc4ccccc4c3)NC2=O)cc1 (some centres undefined) [WO2025051920, Example 34] (Ac-DNT[Trp(1-Me)]QRY(Me)[2Nal][Aib][ξOrn]NN-OH; lactam 1-10) | 2.16
6 | COc1ccc(C[C@@H]2NC(=O)[C@H](CCCNC(=N)N)NC(=O)[C@H](CCC(N)=O)NC(=O)[C@H](Cc3cn(C)c4ccccc34)NC(=O)[C@H]([C@@H](C)O)NC(=O)[C@H](CC(N)=O)NC(=O)[C@@H](NC(C)=O)CC(=O)NCCCC(C(=O)N[C@@H](CC(N)=O)C(=O)N[C@@H](CC(N)=O)C(=O)O)NC(=O)C(C)(C)NC(=O)[C@H](Cc3c[nH]c4ccccc34)NC2=O)cc1 (some centres undefined) [WO2025051920, Example 36] (Ac-DNT[Trp(1-Me)]QRY(Me)W[Aib][ξOrn]NN-OH; lactam 1-10) | 19.5
7 | COc1ccc(C[C@@H]2NC(=O)[C@H](CCNC(=N)N)NC(=O)[C@H](CCC(N)=O)NC(=O)[C@H](Cc3c[nH]c4ccccc34)NC(=O)C([C@@H](C)O)NC(=O)[C@H](CC(N)=O)NC(=O)C(N)CCCCCNC(=O)CC[C@H](C(=O)N[C@@H](CC(N)=O)C(=O)N[C@@H](CC(N)=O)C(=O)O)NC(=O)C(C)(C)NC(=O)[C@H](Cc3ccc4ccccc4c3)NC2=O)cc1 (some centres undefined) [WO2025051920, Example 40] | 3.11
8 | COc1ccc(C[C@@H]2NC(=O)[C@H](CCCNC(=N)N)NC(=O)[C@H](CCC(N)=O)NC(=O)[C@H](Cc3c[nH]c4ccccc34)NC(=O)C(Cc3c[nH]cn3)NC(=O)[C@H](CC(N)=O)NC(=O)C(NC(C)=O)CCCCNC(=O)CC(C(=O)N[C@@H](CC(N)=O)C(=O)N[C@@H](CC(N)=O)C(=O)O)NC(=O)C3(CCOCC3)NC(=O)[C@H](Cc3ccc4ccccc4c3)NC2=O)cc1 (some centres undefined) [WO2025051920, Example 42] (Ac-[ξK]N[ξH]WQRY(Me)[2Nal][Thp][ξD]NN-OH; lactam 1-10) | 18.1
9 | COc1ccc(C[C@@H]2NC(=O)[C@H](C)NC(=O)[C@H](CCC(N)=O)NC(=O)[C@H](Cc3c[nH]c4ccccc34)NC(=O)C([C@@H](C)O)NC(=O)[C@H](CC(N)=O)NC(=O)C(N)CCCCCNC(=O)C[C@H](C(=O)N[C@@H](CC(N)=O)C(=O)N[C@@H](CC(N)=O)C(=O)O)NC(=O)C(C)(C)NC(=O)[C@H](Cc3ccc4ccccc4c3)NC2=O)cc1 (some centres undefined) [WO2025051920, Example 43] | 1.44

Other lines, results leading:

Row | IC50 [nM] | SMILES
10 | 48.4 | COc1ccc(C[C@@H]2NC(=O)[C@H](CCCNC(=N)N)NC(=O)[C@H](CCC(N)=O)NC(=O)[C@H](Cc3c[nH]c4ccccc34)NC(=O)[C@H]([C@@H](C)O)NC(=O)[C@H](CC(N)=O)NC(=O)[C@H](NC(C)=O)CCCNC(=O)CC[C@@H](C(=O)N[C@@H](CC(N)=O)C(=O)N[C@@H](CC(N)=O)C(=O)O)NC(=O)C(C)(C)NC(=O)[C@H](Cc3cccc4ccccc34)NC2=O)cc1 [WO2025051920, Example 22]
11 | 9.61 | COc1ccc(C[C@@H]2NC(=O)[C@H](CCCNC(=N)N)NC(=O)[C@H](CCC(N)=O)NC(=O)[C@H](Cc3cn(C)c4ccccc34)NC(=O)[C@H]([C@@H](C)O)NC(=O)[C@H](CC(N)=O)NC(=O)[C@H](NC(C)=O)CCCCNC(=O)C[C@@H](C(=O)N[C@@H](CC(N)=O)C(=O)N[C@@H](CC(N)=O)C(=O)O)NC(=O)[C@@H](Cc3cscn3)NC(=O)[C@H](Cc3ccc4ccccc4c3)NC2=O)cc1 [WO2025051920, Example 25]
12 | 19.7 | COc1ccc(C[C@@H]2NC(=O)[C@H](CCCNC(=N)N)NC(=O)[C@H](CCC(N)=O)NC(=O)[C@H](Cc3c[nH]c4ccccc34)NC(=O)[C@H]([C@@H](C)O)NC(=O)[C@H](CC(N)=O)NC(=O)[C@H](NC(C)=O)CCCNC(=O)C[C@@H](C(=O)N[C@@H](CC(N)=O)C(=O)N[C@@H](CC(N)=O)C(N)=O)NC(=O)C(C)(C)NC(=O)[C@H](Cc3ccc4ccccc4c3)NC2=O)cc1 [WO2025051920, Example 27] (Ac-[dOrn]NTWQRY(Me)[2Nal][Aib]DNN-NH2; lactam 1-10)
13 | 9.03 | COc1ccc(C[C@@H]2NC(=O)[C@H](CCCNC(=N)N)NC(=O)[C@H](CCC(N)=O)NC(=O)[C@H](Cc3c[nH]c4ccccc34)NC(=O)[C@H]([C@@H](C)O)NC(=O)[C@H](CC(N)=O)NC(=O)[C@H](NC(C)=O)CCCCNC(=O)C[C@@H](C(=O)N[C@@H](CC(N)=O)C(=O)N[C@@H](CC(N)=O)C(=O)O)NC(=O)[C@H](CCCCN)NC(=O)[C@H](Cc3ccc4ccccc4c3)NC2=O)cc1 [WO2025051920, Example 28]
14 | 5.63 | COc1ccc(C[C@@H]2NC(=O)[C@H](CCCNC(=N)N)NC(=O)[C@H](CCC(N)=O)NC(=O)[C@H](Cc3c[nH]c4ccccc34)NC(=O)[C@H]([C@@H](C)O)NC(=O)[C@H](CC(N)=O)NC(=O)[C@H](NC(C)=O)CCCCNC(=O)C[C@@H](C(=O)N[C@@H](CC(N)=O)C(=O)N[C@@H](CC(N)=O)C(=O)O)NC(=O)[C@H](CCCNC(N)=O)NC(=O)[C@H](Cc3ccc4ccccc4c3)NC2=O)cc1 [WO2025051920, Example 29]
15 | 9.64 | COc1ccc(C[C@@H]2NC(=O)[C@H](CCCNC(=N)N)NC(=O)[C@H](CCC(N)=O)NC(=O)[C@H](Cc3c[nH]c4ccccc34)NC(=O)[C@H]([C@@H](C)O)NC(=O)[C@H](CC(N)=O)NC(=O)[C@H](NC(C)=O)CCCCNC(=O)C[C@@H](C(=O)N[C@@H](CC(N)=O)C(=O)N[C@@H](CC(N)=O)C(=O)O)NC(=O)[C@H](CCC(N)=O)NC(=O)[C@H](Cc3ccc4ccccc4c3)NC2=O)cc1 [WO2025051920, Example 30]
16 | 4.55 | COc1ccc(C[C@@H]2NC(=O)[C@H](CCCNC(=N)N)NC(=O)[C@H](CCC(N)=O)NC(=O)[C@H](Cc3cn(C)c4ccccc34)NC(=O)[C@H]([C@@H](C)O)NC(=O)[C@H](CC(N)=O)NC(=O)[C@@H](NC(C)=O)CCC(=O)NCCCC(C(=O)N[C@@H](CC(N)=O)C(=O)N[C@@H](CC(N)=O)C(=O)O)NC(=O)C(C)(C)NC(=O)[C@H](Cc3ccc4ccccc4c3)NC2=O)cc1 (stereo partly drawn) [WO2025051920, Example 35] (Ac-ENT[Trp(1-Me)]QRY(Me)[2Nal][Aib][ξOrn]NN-OH; lactam 1-10)
17 | 3.57 | COc1ccc(C[C@@H]2NC(=O)[C@H](CCCNC(=N)N)NC(=O)[C@H](CCC(N)=O)NC(=O)[C@H](Cc3cn(C)c4ccccc34)NC(=O)[C@H]([C@@H](C)O)NC(=O)[C@H](CC(N)=O)NC(=O)[C@@H](NC(C)=O)CC(=O)NCCCC(C(=O)N[C@@H](CC(N)=O)C(=O)N[C@@H](CC(N)=O)C(=O)O)NC(=O)[C@H](CC(C)C)NC(=O)[C@H](Cc3ccc4ccccc4c3)NC2=O)cc1 (some centres undefined) [WO2025051920, Example 37] (Ac-DNT[Trp(1-Me)]QRY(Me)[2Nal]L[ξOrn]NN-OH; lactam 1-10)
18 | 1.46 | COc1ccc(C[C@@H]2NC(=O)[C@H](CCNC(=N)N)NC(=O)[C@H](CCC(N)=O)NC(=O)[C@H](Cc3c[nH]c4ccccc34)NC(=O)[C@H]([C@@H](C)O)NC(=O)[C@H](CC(N)=O)NC(=O)[C@H](NC(C)=O)CCCCNC(=O)C[C@@H](C(=O)N[C@@H](CC(N)=O)C(=O)N[C@@H](CC(N)=O)C(=O)O)NC(=O)C(C)(C)NC(=O)[C@H](Cc3ccc4ccccc4c3)NC2=O)cc1 [WO2025051920, Example 39]
19 | 1.47 | COc1ccc(C[C@@H]2NC(=O)[C@H](CCCNC(=N)N)NC(=O)[C@H](CCC(N)=O)NC(=O)[C@H](Cc3c[nH]c4ccccc34)NC(=O)C([C@@H](C)O)NC(=O)[C@H](CC(N)=O)NC(=O)C(NC(C)=O)CCCCNC(=O)CC(C(=O)N[C@@H](CC(N)=O)C(=O)N[C@@H](CC(N)=O)C(=O)O)NC(=O)C3(CCOCC3)NC(=O)[C@H](Cc3ccc4ccccc4c3)NC2=O)cc1 (stereo partly drawn) [WO2025051920, Example 41] (Ac-[ξK]N[ξThr(3R)]WQRY(Me)[2Nal][Thp][ξD]NN-OH; lactam 1-10)
